Laboratory results as given in article PMC8472287, “Betulinic Acid Decorated with Polar Groups and Blue Emitting BODIPY Dye: Synthesis, Cytotoxicity, Cell-Cycle Analysis and Anti-HIV Profiling” (Biomedicines, 2021).

How the values were obtained:
[1] = system: K562-Tax; assay: MTS cytotoxicity assay, K562-Tax; format: cell-based; settings: Homo sapiens, 72 h, K562-Tax (paclitaxel-resistant), 3-day incubation
From the text: (§1) All cells (if not indicated otherwise) were purchased from the American Tissue Culture Collection (ATCC; Manassas, VA, USA). The highly chemosensitive CCRF-CEM line is derived from T lymphoblastic leukaemia, K562 represent cells of chronic myelogenous leukaemia. Colorectal adenocarcinoma HCT116 cell line and its p53 gene knockout counterpart (HCT116p53−/−, Horizon Discovery Ltd., Cambridge, UK) were used as models to assess the impact of p53 deficiency on cell line sensitivity. A549 cells are derived from lung adenocarcinoma and U2OS from human osteosarcoma. CEM-DNR and K562-Tax are well-characterized daunorubicin and paclitaxel-resistant sublines of CCRF-CEM and K562. The CEM-DNR resistant cells overexpress the P-glycoprotein and LRP protein, the K562-Tax overexpress P-glycoprotein but is losing the expression of LRP, which is present at parental K562 cell line. P-glycoprotein belongs to the ABC transporters’ family and is involved in the primary and acquired multidrug resistance phenomenon by the efflux of toxic compounds, LRP protein is involved in the lysosomal degradation. MRC-5 and BJ cell lines were used as a non-tumour control and represent human fibroblasts. The cells were maintained in Nunc/Corning 80 cm^2 plastic tissue culture flasks and cultured in cell culture medium according to ATCC or Horizon recommendations (DMEM/RPMI 1640 with 5 g/L-glucose, 2 mM glutamine, 100 U/mL penicillin, […] streptomycin, 10% fetal calf serum, and NaHCO3).
(§2) To perform the cytotoxicity MTS assay, cell suspensions were prepared and diluted according to the cell type and the expected target cell density (25,000–35,000 cells/mL) based on cell growth characteristics. Cells were added by an automatic pipettor (30 μL) into 384 well microtiter plates. All tested compounds were dissolved in 100% DMSO and four-fold dilutions of the intended test concentration were added in 0.15 μL aliquots at time zero to the microtiter plate wells by the echo-acoustic liquid handler Echo550 (Labcyte, San Jose, CA, USA). The experiments were performed in technical duplicates and at least three biological replicates. The cells were incubated with the tested compounds for 72 h at 37 °C, in a 5% CO2 atmosphere at 99% humidity. At the end of the incubation period, the cells were assayed by using the MTS test. Aliquots (5 µL) of the MTS stock solution were pipetted into each well and incubated for an additional 1–4 h. After this incubation period, the optical density (OD) was measured at 490 nm with an Envision microplate reader (Perkin Elmer, Waltham, Massachusetts, USA). Tumour cell survival (TCS) was calculated using the following equation: TCS = (ODdrug-exposed well/mean ODcontrol wells) × 100%.

[2] = system: U2OS; assay: MTS cytotoxicity assay, U2OS; format: cell-based; settings: Homo sapiens, 72 h, 3-day incubation
From the text: as §1, §2

[3] = system: CCRF-CEM; assay: MTS cytotoxicity assay, CCRF-CEM; format: cell-based; settings: Homo sapiens, 72 h, 3-day incubation
From the text: as §1, §2

[4] = system: MRC-5; assay: MTS cytotoxicity assay, MRC-5; format: cell-based; settings: Homo sapiens, MRC5, 72 h, MRC-5 normal fibroblasts, 3-day incubation
From the text: as §1, §2

[5] = system: CEM-DNR; assay: MTS cytotoxicity assay, CEM-DNR; format: cell-based; settings: Homo sapiens, 72 h, CEM-DNR (daunorubicin resistant), 3-day incubation
From the text: as §1, §2

[6] = system: A549; assay: MTS cytotoxicity assay, A549; format: cell-based; settings: Homo sapiens, 72 h, 3-day incubation
From the text: as §1, §2

[7] = system: entire cell line panel
[8] = system: BJ; assay: MTS cytotoxicity assay, BJ; format: cell-based; settings: Homo sapiens, 72 h, BJ normal fibroblasts, 3-day incubation
From the text: as §1, §2

[9] = system: HCT116p53−/−; assay: MTS cytotoxicity assay, HCT116p53−/−; format: cell-based; settings: Homo sapiens, HCT116-p53-null, 72 h, HCT116p53−/− (null p53 gene), 3-day incubation
From the text: as §1, §2

[10] = system: K562; assay: MTS cytotoxicity assay, K562; format: cell-based; settings: Homo sapiens, 72 h, 3-day incubation
From the text: as §1, §2

[11] = system: HCT116; assay: MTS cytotoxicity assay, HCT116; format: cell-based; settings: Homo sapiens, HCT-116, 72 h, 3-day incubation
From the text: as §1, §2

[12] = system: VSV-G pseudotyped HIV-1 particles; assay: microbe, parasite or virus in culture; format: cell-based; settings: for IC50: Human immunodeficiency virus 1, HEK293, 48 h, read-out: IC50i (50% infection inhibition)
[13] = in vitro; settings: human

Structure (SMILES): C=C(C)[C@@H]1CC[C@]2(C(=O)O)CC[C@]3(C)[C@H](CC[C@@H]4[C@@]5(C)CC[C@H](OC(=O)CC(C)(C)C(=O)O)C(C)(C)[C@@H]5CC[C@]43C)[C@@H]12 [BT, 3-O-(3,3-dimethylsuccinyl) betulinic acid, reference compound]
- IC50 [1]: 22 µM
- IC50 [2]: 27.6 µM
- IC50 [3]: 12.8 µM
- IC50 [4]: > 50 µM
- IC50 [5]: 22.2 µM
- IC50 [6]: 23.1 µM
- cytotoxic effect in the cell line panel (in words) [7]: weak or medium cytotoxic effect
- IC50 [8]: > 50 µM
- IC50 [9]: 18.2 µM
- IC50 [10]: 23.6 µM
- IC50 [11]: 14.2 µM

Structure (SMILES): C=C(C)[C@@H]1CC[C@]2(C(=O)NCCCN=[N+]=[N-])CC[C@]3(C)[C@H](CC[C@@H]4[C@@]5(C)CC[C@H](O)C(C)(C)[C@@H]5CC[C@]43C)[C@@H]12 [Compound 1, (3β)-N-(3-Azidopropyl)-3-hydroxylup-20(29)-ene-28-amide]
- IC50 [1]: 10.6 µM
- IC50 [2]: 29 µM
- IC50 [3]: 8.98 µM
- IC50 [4]: > 50 µM
- IC50 [5]: 16.8 µM
- IC50 [6]: > 50 µM
- anti-HIV-1 activity (in words) [12]: did not exhibit any potent anti-HIV-1 activity
- IC50 [12]: > 50 µM
- cytotoxic effect in the cell line panel (in words) [7]: activity only against selected cell lines
- IC50 [8]: > 50 µM
- IC50 [9]: > 50 µM
- IC50 [10]: > 50 µM
- IC50 [11]: > 50 µM
- IC50 [13]: > 40 µM

Structure (SMILES): C=C(C)[C@@H]1CC[C@]2(C(=O)NCCCN=[N+]=[N-])CC[C@]3(C)[C@H](CC[C@@H]4[C@@]5(C)CC[C@H](OC(=O)CCNC6=C7C=CC=[N+]7[B-](F)(F)n7cccc76)C(C)(C)[C@@H]5CC[C@]43C)[C@@H]12 [Compound 5, (3β)-N-(3-Azidopropyl)-3-[N´-(4,4-difluoro-4-bora-3a,4a-diaza-s-indacene-8-yl)-β-alanyl]-oxy-lup-20(29)-ene-28-amide]
- anti-HIV-1 activity (in words) [12]: did not exhibit any potent anti-HIV-1 activity
- IC50 [12]: > 50 µM
- cytotoxic effect in the cell line panel (in words) [7]: did not induce any cytotoxic effect
- IC50 [13]: > 40 µM

Structure (SMILES): C=C(C)[C@@H]1CC[C@]2(C(=O)NCCCNC(=O)OC(C)(C)C)CC[C@]3(C)[C@H](CC[C@@H]4[C@@]5(C)CC[C@H](O)C(C)(C)[C@@H]5CC[C@]43C)[C@@H]12 [Compound 7, Tert-butyl-(3-{[(3β)-3-hydroxy-28-oxolup-20(29)-ene-28-yl]amino}propyl)-carbamate]
- IC50 [1]: > 50 µM
- IC50 [2]: 18.4 µM
- IC50 [3]: > 50 µM
- IC50 [4]: 17.6 µM
- IC50 [5]: > 50 µM
- IC50 [6]: 21.3 µM
- anti-HIV-1 activity (in words) [12]: did not exhibit any potent anti-HIV-1 activity
- IC50 [12]: > 50 µM
- cytotoxic effect in the cell line panel (in words) [7]: activity only against selected cell lines
- IC50 [8]: 20.7 µM
- IC50 [9]: > 50 µM
- IC50 [10]: > 50 µM
- IC50 [11]: > 50 µM
- IC50 [13]: > 40 µM

Structure (SMILES): C=C(C)[C@@H]1CC[C@]2(C(=O)N3CCN(CCNC4=C5C=CC=[N+]5[B-](F)(F)n5cccc54)CC3)CC[C@]3(C)[C@H](CC[C@@H]4[C@@]5(C)CC[C@H](O)C(C)(C)[C@@H]5CC[C@]43C)[C@@H]12 [Compound 15, (3β)-28-{4-[N-(4,4-Difluoro-4-bora-3a,4a-diaza-s-indacene-8-yl)-2-aminoethyl]piperazine-1-yl}-3-hydroxylup-20(29)-ene-28-one]
- anti-HIV-1 activity (in words) [12]: did not exhibit any potent anti-HIV-1 activity
- IC50 [12]: > 50 µM
- cytotoxic effect in the cell line panel (in words) [7]: did not induce any cytotoxic effect
- IC50 [13]: > 40 µM
